# Source: patent US20060025449A1, “Use of N-substituted imino sugars for appetite suppression” (priority 2004, published 2006)
# Columns and labels:
# C57B1/6 mice [1] = assay: Effect of imino sugars admixed with diet on growth of normal control mice; assay type: in vivo, mouse
# Protocol: Control C57B1/6 and C57BL/6O1aHsd-Lep ob mice were obtained from Harlan, UK at five weeks of age. The mice were housed under standard non-sterile conditions and fed a diet of mouse chow pelleted or expanded ground RM1 diet (SDS Ltd, Witham, Essex) with water available ad libitum. For dietary treatment of the mice with NB-DNJ or NB-DGJ, the diet and compound were admixed thoroughly as dry solids, stored at room temperature and used within 7 days. Unless indicated otherwise, mice were treated with a dose of 2400 mg/kg body weight per day, assuming an intake of around 5 g diet/day. Mice were maintained on diet with or without compound for up to six months of age and were weighed at regular intervals during the course of the experiment (see figure legends for group sizes and further experimental details). To study the effect of compound on obese mice, three groups (n=5) of ob/ob mice were monitored from five weeks of age. One group acted as control and were fed ground RM1 diet. At 6 weeks of age, the second group was started on NB-DNJ in the diet, whilst the third group started drug treatment at 12 weeks of age. All mice were then monitored for up to six months of age. […] In the first week of treatment, mice with NB-DNJ in their diet lost about 10% of their total body mass. Over the course of the following weeks, their weight stabilises. By 5 weeks of treatment they weighed 25% less than the controls. They then started to gain weight. However, after 10 weeks they remained 20% less in mass when compared with the age and sex-matched control group.
# male C57B1/6 mice = assay: Epididymal fat pad weight, dose-response; assay type: in vivo, mouse
# Protocol: A dose-response relationship for the effect of increasing concentrations of NB-DNJ on adipose tissue in male C57B1/6 mice was determined by treating with doses ranging from 15 to 2400 mg/kg/day for 5 weeks. Mice were sacrificed and their epididymal fat pads excised and weighed. The results are expressed as a ratio of epididymal pad fat mass to total body weight.
# [2] = test system: lean control and obese mice; assay: Dietary intake in lean and obese mice (compound in diet or intraperitoneal injection); assay type: in vivo, mouse
# Protocol: Dietary intake of mice on powdered diets was measured on a daily basis, by pre-weighing diet put into the feeding hoppers then weighing remaining diet daily. Diet which the mice had spilt on the floor of the cage, was carefully recovered by sieving and incorporated into the measurements. In order to facilitate measurement of dietary intake, to exclude possible effects of the bitter taste of imino sugar in the diet and also inhibitory effects on disaccharidases in the gastrointestinal tract, groups of control and obese mice five weeks old were given daily intraperitoneal injections of NB-DNJ at a dose equivalent to 2400 mg/kg/day. A further group of obese mice was given daily intraperitoneal injections for two weeks from 10 weeks old. Control mice for each group were injected with an equal volume of isotonic saline vehicle. After assessment of dietary intake over five weeks in controls and three weeks in the obese mice, a restricted diet of 3.2 g/day for controls and 4.0 g/day for the obese mice was provided to compare with the effect of intraperitoneal injection. This equated to a 30% reduction in dietary provision for both groups of mice. […] Platt et al., J Biol Chem 272, 19365-72. This hypothesis was tested by measuring dietary intake in both lean and obese mice fed on both powdered chow with or without imino sugar and with pelleted diet. To exclude any effects of the bitter taste of imino sugars and also as a means to bypass any disaccharidase inhibition in the gut, lean control and obese mice were given daily intraperitoneal injections of NB-DNJ for five and three weeks respectively. Also, a group of obese mice had NB-DNJ mini-pumps implanted and, after four weeks, when the pumps were empty, were then given intraperitoneal injections daily. This delivery route has the advantage that it allows easy assessment of dietary intake, as the mice can eat pelleted diet.
# lean control mouse = assay: Single intracerebroventricular (ICV) injection, food intake and weight change after 24 hours; assay type: in vivo
# Protocol: To investigate a central anorexigenic mechanism for weight loss in mice treated with NB-DNJ, single intracerebro-ventricular (ICV) injections were performed. The mice were assessed for food intake and weight change. Mice were anesthetized with isofluorane (4%) delivered by a vaporiser. Upon achievement of a surgical plane of anaesthesia, the animal was transferred to and secured in a Kopf small animal ultra precise stereotaxic instrument (David Kopf Instruments, Tujunga, Calif., USA) fitted with rat ear bars, mouse adaptor and mouse anaesthesia mask. A small amount of lignocaine local anaesthetic gel was applied to the ear bars to reduce any post-operative discomfort. For the remainder of the procedure, anaesthesia was maintained with 2.5% isofluorane. Lacrilube (Allergan Ltd, High Wycombe, UK) was applied to the mouse's eyes and a subcutaneous injection of the non-steroidal anti-inflammatory drug, Rimadyl (Pfizer, Sandwich, Kent, UK) was given for post-operative analgesia. For ICV injections, a small scalpel incision was made along the midline of the scalp from above the eyes to the occiput. A small hole was drilled in the skull, 1 mm lateral and 0.34 mm posterior to Bregma. 1 μl solution was slowly infused into the lateral ventricle at a depth of 2.25 mm, via a glass needle pipette pulled to a thickness of less than 100 microns at the tip. Mice were injected with 2 nmol compound (NB-DNJ, NB-DGJ or 2-deoxy glucose) in isotonic saline vehicle which was injected into controls. The incision was then closed using VetBond acrylic suture fluid (3M Animal Care Products, St Paul, Minn., USA). The whole procedure from induction of anaesthesia to full recovery lasted less than seven minutes. Mice were allowed free access to a pre-weighed quantity of RM1 pellet diet with water provided ad libitum. 24 hours following ICV injection the mice and remaining diet were weighed. To confirm a central anorectic effect of NB-DNJ, 2 nmol NB-DNJ, NB-DGJ and 2 deoxyglucose were injected directly into the lateral cerebral ventricle of lean control mouse brain (approximately 100 μM final cerebro-ventricular concentration). Mice injected with both saline vehicle and NB-DGJ ate a normal quantity of pellet diet in the following 24 hours (FIG. 9), approximately 5% less in this experiment than that seen in control mice in FIG. 7 (not statistically significant). In contrast, NB-DNJ-injected mice ate 20% less (p<0.02 for both saline and NB-DGJ) and 2-deoxy-glucose injections caused a 10% increase in feeding. 2-deoxy-glucose is a mild appetite stimulant in the short-term. Tsutsui et al., Physiol Behav 31, 493-502. In contrast, NB-DGJ had no effect, as expected.
# C57B1/6 mice [3] = conditions: Platt et al.; cited from earlier work
structure (smiles),measurement,setting,value
"CCCCN1C[C@H](O)[C@@H](O)[C@H](O)[C@H]1CO [NB-DNJ, N-butyldeoxynojirimycin]",loss of total body mass,"C57B1/6 mice [1]; 2400 mg/kg/day in diet from 6 weeks of age, first week of treatment",about 10%
same,less in mass compared with age and sex-matched control group,"C57B1/6 mice [1]; 2400 mg/kg/day in diet, after 10 weeks",20%
same,weighed less than the controls,"C57B1/6 mice [1]; 2400 mg/kg/day in diet, by 5 weeks of treatment",25%
same,lowest dose at which a reduction in fat pad weight is apparent,"male C57B1/6 mice; 5 weeks treatment, doses 15 to 2400 mg/kg/day",15 mg/kg/day
same,epididymal fat pad mass to total body weight,"male C57B1/6 mice; five weeks treatment, 15 to 2400 mg/kg/day",clear dose-related response
same,reduction in food intake,"[2]; all groups of mice, pelleted or powdered diet, 2400 mg/kg/day equivalent",around 30%
same,eat less than age and sex-matched controls,"[2]; intraperitoneally injected mice, 2400 mg/kg/day equivalent",30%
same,ate less than untreated controls,[2]; lean and obese groups,up to one third less
same,ate less than saline- and NB-DGJ-injected mice,"lean control mouse; 2 nmol ICV, 24 hours",20%
same,weight change,"lean control mouse; 2 nmol ICV, 24 hours",significant weight loss
same,initial hyperphagic response,lean control mouse; first 24 hrs post icv injection,did not cause an initialhyperphagic response
same,dose at which a well-defined effect on total body weight has been seen,C57B1/6 mice [3],≥ 600 mg/kg/day
